{
  "source": "paper PMC7680421",
  "about": "(Cell chemical biology, 2020)",
  "key": {"Mouse ENPP1 [1]": {"molecular_target": "T1, Mouse ENPP1 (Mus musculus, UniProt P06802)", "T1 sequence (P06802 92-905 isoform P06802-2)": "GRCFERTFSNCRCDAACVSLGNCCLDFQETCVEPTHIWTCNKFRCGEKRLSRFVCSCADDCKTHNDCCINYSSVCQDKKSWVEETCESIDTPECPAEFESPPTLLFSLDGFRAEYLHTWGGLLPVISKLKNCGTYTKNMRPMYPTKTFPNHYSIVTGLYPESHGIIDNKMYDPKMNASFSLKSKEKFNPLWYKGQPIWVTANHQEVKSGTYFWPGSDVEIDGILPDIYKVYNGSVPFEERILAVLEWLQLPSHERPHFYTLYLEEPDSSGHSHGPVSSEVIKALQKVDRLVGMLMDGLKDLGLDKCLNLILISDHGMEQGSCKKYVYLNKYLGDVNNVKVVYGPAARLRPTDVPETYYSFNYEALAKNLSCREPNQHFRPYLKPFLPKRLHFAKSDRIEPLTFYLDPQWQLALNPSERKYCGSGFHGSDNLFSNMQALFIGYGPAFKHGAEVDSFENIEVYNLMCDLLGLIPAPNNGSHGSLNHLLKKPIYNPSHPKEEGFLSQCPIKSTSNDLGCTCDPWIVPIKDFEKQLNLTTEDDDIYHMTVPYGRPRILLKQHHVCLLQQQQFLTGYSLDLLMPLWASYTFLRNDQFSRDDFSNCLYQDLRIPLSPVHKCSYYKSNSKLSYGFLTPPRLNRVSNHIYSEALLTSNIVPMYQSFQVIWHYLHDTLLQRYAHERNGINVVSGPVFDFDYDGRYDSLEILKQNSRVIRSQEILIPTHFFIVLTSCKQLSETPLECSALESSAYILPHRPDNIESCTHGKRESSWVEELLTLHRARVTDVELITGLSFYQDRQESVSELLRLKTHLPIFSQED", "settings": "substrate cGAMP, pH 7.4"}, "[2]": {"test": "Plasma kinetics: half-life of radiolabeled cGAMP in mouse plasma", "type": "in vitro ADME", "settings": "5 μM cGAMP, 37 °C"}, "[3]": {"test": "Plasma kinetics: half-life of radiolabeled cGAMP in human plasma", "type": "in vitro ADME", "settings": "based on 5 healthy donors, 5 μM cGAMP, 37 °C"}, "Mouse ENPP1 [4]": {"molecular_target": "T1, Mouse ENPP1", "test": "In vitro ENPP1 activity assay with cGAMP as substrate", "type": "biochemical", "settings": "Ki at pH 7.4"}, "hERG channel": {"molecular_target": "hERG channel (Homo sapiens, UniProt Q12809)", "sequence (Q12809 whole entry)": "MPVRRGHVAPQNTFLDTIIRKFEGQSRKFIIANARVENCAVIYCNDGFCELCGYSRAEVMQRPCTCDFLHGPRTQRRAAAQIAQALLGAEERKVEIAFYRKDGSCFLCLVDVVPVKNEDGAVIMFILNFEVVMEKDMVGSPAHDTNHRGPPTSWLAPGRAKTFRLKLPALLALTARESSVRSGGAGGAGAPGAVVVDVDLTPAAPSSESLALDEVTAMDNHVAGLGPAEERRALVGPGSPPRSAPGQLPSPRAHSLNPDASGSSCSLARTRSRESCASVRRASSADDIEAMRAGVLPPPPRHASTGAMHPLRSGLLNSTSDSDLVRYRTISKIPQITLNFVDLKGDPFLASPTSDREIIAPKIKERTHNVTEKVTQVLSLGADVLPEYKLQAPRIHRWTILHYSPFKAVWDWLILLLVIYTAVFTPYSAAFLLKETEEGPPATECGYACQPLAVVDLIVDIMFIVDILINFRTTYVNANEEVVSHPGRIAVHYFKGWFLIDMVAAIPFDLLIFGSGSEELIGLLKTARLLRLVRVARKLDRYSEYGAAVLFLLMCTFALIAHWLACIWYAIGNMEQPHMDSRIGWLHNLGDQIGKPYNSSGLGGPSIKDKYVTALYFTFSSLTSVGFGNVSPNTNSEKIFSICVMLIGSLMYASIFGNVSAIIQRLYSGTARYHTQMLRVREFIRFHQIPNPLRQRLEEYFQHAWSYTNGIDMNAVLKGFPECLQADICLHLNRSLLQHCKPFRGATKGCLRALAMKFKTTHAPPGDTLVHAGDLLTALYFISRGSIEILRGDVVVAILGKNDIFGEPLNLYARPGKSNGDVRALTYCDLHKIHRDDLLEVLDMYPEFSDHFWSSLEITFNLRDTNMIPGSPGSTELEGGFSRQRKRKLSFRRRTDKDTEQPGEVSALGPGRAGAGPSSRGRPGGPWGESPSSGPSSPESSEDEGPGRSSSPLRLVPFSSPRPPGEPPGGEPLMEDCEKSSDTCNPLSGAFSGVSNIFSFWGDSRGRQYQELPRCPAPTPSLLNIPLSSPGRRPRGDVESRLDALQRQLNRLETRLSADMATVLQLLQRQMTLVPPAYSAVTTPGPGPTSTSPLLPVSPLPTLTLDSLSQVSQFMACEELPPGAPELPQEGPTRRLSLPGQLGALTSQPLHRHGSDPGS", "test": "hERG channel inhibition assay", "settings": "at 25 μM"}, "ENPP1 in human plasma": {"molecular_target": "ENPP1 in human plasma (Homo sapiens, UniProt P22413)", "sequence (P22413 103-925 limits assumed)": "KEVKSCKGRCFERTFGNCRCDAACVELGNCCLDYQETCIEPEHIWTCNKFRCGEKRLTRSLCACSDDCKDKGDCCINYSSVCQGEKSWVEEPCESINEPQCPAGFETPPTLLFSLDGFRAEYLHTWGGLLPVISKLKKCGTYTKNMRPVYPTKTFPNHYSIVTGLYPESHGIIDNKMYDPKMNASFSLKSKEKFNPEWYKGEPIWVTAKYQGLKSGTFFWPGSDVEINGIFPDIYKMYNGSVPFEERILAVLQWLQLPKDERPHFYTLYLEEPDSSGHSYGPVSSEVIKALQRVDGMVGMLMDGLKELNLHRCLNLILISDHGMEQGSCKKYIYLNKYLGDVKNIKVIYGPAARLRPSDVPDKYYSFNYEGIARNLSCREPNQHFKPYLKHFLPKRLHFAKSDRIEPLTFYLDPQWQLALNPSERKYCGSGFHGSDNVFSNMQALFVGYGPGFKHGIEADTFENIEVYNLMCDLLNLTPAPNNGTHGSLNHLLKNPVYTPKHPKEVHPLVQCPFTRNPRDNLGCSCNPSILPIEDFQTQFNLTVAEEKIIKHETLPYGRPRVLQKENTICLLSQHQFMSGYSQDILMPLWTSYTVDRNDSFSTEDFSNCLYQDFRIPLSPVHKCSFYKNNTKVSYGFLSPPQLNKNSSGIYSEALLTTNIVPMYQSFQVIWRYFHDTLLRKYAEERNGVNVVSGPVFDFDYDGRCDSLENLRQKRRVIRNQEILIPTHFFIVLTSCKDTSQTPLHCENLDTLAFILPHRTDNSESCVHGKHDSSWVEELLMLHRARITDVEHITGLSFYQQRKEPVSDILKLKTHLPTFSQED", "settings": "50 mM EDTA, 37 °C"}, "ENPP1 in mouse plasma": {"molecular_target": "T2, ENPP1 in mouse plasma (Mus musculus, UniProt P06802)", "T2 sequence (P06802 85-906 limits assumed)": "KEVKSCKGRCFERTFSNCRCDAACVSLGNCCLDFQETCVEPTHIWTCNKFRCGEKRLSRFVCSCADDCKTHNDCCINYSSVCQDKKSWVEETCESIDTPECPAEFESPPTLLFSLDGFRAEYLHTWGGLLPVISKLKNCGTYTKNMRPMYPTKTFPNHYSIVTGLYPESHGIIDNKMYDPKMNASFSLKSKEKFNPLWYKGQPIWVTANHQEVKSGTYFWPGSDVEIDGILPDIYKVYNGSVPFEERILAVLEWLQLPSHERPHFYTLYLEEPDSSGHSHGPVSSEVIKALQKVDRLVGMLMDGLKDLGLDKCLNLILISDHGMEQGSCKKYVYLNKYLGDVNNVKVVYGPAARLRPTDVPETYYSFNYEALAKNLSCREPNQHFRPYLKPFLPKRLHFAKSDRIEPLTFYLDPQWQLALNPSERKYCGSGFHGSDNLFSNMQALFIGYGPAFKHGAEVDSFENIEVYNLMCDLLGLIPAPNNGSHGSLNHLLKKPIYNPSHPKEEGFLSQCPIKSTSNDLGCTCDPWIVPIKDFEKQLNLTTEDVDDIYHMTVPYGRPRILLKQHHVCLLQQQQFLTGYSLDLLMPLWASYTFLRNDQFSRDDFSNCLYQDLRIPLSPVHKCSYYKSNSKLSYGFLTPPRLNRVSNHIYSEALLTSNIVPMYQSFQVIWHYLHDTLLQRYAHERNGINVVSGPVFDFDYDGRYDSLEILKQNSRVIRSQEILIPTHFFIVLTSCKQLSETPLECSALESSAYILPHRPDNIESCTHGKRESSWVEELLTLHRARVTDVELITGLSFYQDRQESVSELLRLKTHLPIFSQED", "test": "Inhibition of cGAMP degradation in mouse plasma", "type": "biochemical", "settings": "50 mM EDTA, 37 °C"}},
  "data": [
    {"compound": "Nc1nc2c(ncn2[C@@H]2O[C@@H]3COP(=O)(O)O[C@H]4[C@@H](O)[C@H](n5cnc6c(N)ncnc65)O[C@@H]4COP(=O)(O)O[C@@H]2[C@@H]3O)c(=O)[nH]1", "note": "[cGAMP, 2’,3’-cyclic GMP-AMP]", "values": [
      {"measurement": "Km", "setting": "Mouse ENPP1 [1]", "value": 240, "unit": "µM"},
      {"measurement": "t1/2 of cGAMP", "setting": "[2]", "value": 16, "unit": "min"},
      {"measurement": "t1/2 of cGAMP", "setting": "[3]", "value": "30 to 60", "unit": "min"}
    ]},
    {"compound": "COc1ccc2ncnc(N3CCC(CCP(=O)(O)O)CC3)c2c1", "note": "[compound 25]", "values": [
      {"measurement": "loss in potency compared to compound 15", "setting": "Mouse ENPP1 [4]", "value": 100, "unit": "fold"}
    ]},
    {"compound": "COc1cc2ncnc(N3CCC(CCP(=O)(O)O)CC3)c2cc1OC", "note": "[compound 15]", "values": [
      {"measurement": "hERG inhibition", "setting": "hERG channel", "value": "no inhibition"}
    ]},
    {"compound": "COc1cc2nccc(N3CCC(CCP(=O)(O)O)CC3)c2cc1OC", "note": "[compound 46]", "values": [
      {"measurement": "loss in potency compared to compound 15", "setting": "Mouse ENPP1 [4]", "value": 3, "unit": "fold"}
    ]},
    {"compound": "O=C(O)CN(CCN(CC(=O)O)CC(=O)O)CC(=O)O", "note": "[EDTA]", "values": [
      {"measurement": "effect on cGAMP degradation", "setting": "ENPP1 in human plasma", "value": "abrogated cGAMP degradation"},
      {"measurement": "effect on cGAMP degradation", "setting": "ENPP1 in mouse plasma", "value": "abrogated cGAMP degradation"}
    ]}
  ]
}
